We go through 16 molecules from patent US10947252B2, “Inhibitors of KEAP1-Nrf2 protein-protein interaction” (Janssen Pharmaceutica NV, priority 2018, dated 2021).

Bounds are passed on as bounds.

Experiment [1] deals with Glo-Response ARE-luc2P HEK293 cell line. Nature of the experiment: ARE luciferase reporter cell-based assay.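 Further: luciferase signal tracks Nrf2 activation of the ARE once compounds disrupt KEAP1-Nrf2 binding, read with One-Glo reagent, DMSO serving as low control.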 The conditions noted are these: Homo sapiens, HEK293, 24 h, average of results obtained.
Experiment [2] has as its target Kelch domain of human KEAP1 (321-624 aa) (Homo sapiens (Human), UniProt Q14145). Put plainly: KEAP1 KELCH ThermoFluor binding assay.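 Further: Ligand-induced melting temperature shift of E. coli-expressed KEAP1 Kelch protein, Kd estimated from concentration-response curves of ΔTm.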 The following applies: KEAP Kelch […], 1,8-ANS, pH 7.0, average of results obtained, read-out: Tf Kd. In general terms: In DSF a fluorescence change marks the thermal transition of the protein.

Sequence of Kelch domain of human KEAP1 (321-624 aa) (Q14145 321-624): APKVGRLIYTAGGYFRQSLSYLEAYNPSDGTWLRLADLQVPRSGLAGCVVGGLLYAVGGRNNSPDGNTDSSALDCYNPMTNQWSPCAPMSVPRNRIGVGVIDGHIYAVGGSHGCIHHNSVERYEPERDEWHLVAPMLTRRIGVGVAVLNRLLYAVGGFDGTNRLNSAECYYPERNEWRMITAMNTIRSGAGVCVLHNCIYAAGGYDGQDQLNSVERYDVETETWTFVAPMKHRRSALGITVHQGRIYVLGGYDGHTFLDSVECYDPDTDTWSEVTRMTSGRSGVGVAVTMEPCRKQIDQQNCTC

Consider `Cc1cnc2c(c1)S(=O)(=O)N(Cc1nc([C@H](c3ccn4c(C(F)F)nnc4c3C)C(C)(C)C(=O)O)ccc1C)CC1(CC1)O2` (single isomer, unassigned) [Example 335, (*R)-3-(3-(Difluoromethyl)-8-methyl-[1,2,4]triazolo[4,3-a]pyridin-7-yl)-2,2-dimethyl-3-(5-methyl-6-((8′-methyl-1′,1′-dioxidospiro[cyclopropane-1,4′-pyrido[2,3-b][1,4,5]oxathiazepin]-2′(3′H)-yl)methyl)pyridin-2-yl)propanoic Acid], for which the EC50 (commonly the concentration at which the effect is half-maximal) in experiment [1] turned out to be 4620 nM. Besides, the Kd – broadly, the constant that tells how readily two partners part at equilibrium – in experiment [2] turned out to be 2440 nM.

Regarding `Cc1ccc([C@@H](CC(=O)O)c2ccc3c(nnn3CC3CC3)c2C)cc1CN1C[C@@]2(C)CCCN2c2ncccc2S1(=O)=O` (single isomer, unassigned) [Example 81, (*R)-3-(1-(Cyclopropylmethyl)-4-methyl-1H-benzo[d][1,2,3]triazol-5-yl)-3-(4-methyl-3-(((*R)-7a-methyl-5,5-dioxido-7a,8,9,10-tetrahydropyrido[2,3-f]pyrrolo[2,1-d][1,2,5]thiadiazepin-6(7H)-yl)methyl)phenyl)propanoic Acid], the EC50 in experiment [1] came to 176 nM. The Kd in experiment [2] was found to be 5.5 nM.

In turn, `Cc1ccc([C@H](CC(=O)O)c2ccn3c(C(F)(F)F)nnc3c2C)cc1CN1C[C@H]2CCCCN2c2ncc(C#N)cc2S1(=O)=O` (single isomer, unassigned) [Example 9, (*S)-3-(3-(((*R)-3-Cyano-5,5-dioxido-7,7a,8,9,10,11-hexahydro-6H-dipyrido[2,1-d:2′,3′-f][1,2,5]thiadiazepin-6-yl)methyl)-4-methylphenyl)-3-(8-methyl-3-(trifluoromethyl)-[1,2,4]triazolo[4,3-a]pyridin-7-yl)propanoic Acid] returned a concentration for a half-maximal effect (EC50) in experiment [1] of 3.8 nM. For the same molecule, the Kd in experiment [2] is under 1 nM.

`CC[C@@H]1CN(Cc2cc([C@@H](CC(=O)O)c3ccn4c(C(F)(F)F)nnc4c3C)ccc2C)S(=O)(=O)c2cccnc2O1` (single isomer, unassigned) [Example 190, (*R)-3-(3-(((R)-4-Ethyl-1,1-dioxido-3,4-dihydro-2H-pyrido[2,3-b][1,4,5]oxathiazepin-2-yl)methyl)-4-methylphenyl)-3-(8-methyl-3-(trifluoromethyl)-[1,2,4]triazolo[4,3-a]pyridin-7-yl)propanoic Acid]: the EC50 in experiment [1] was 57 nM. Besides, the Kd in experiment [2] was under 1 nM.

As for `CCn1nnc2c(C)c([C@H](c3cc(CN4CC5(CC5)Oc5ncc(C)cc5S4(=O)=O)c(C)cn3)C(C)(C)C(=O)O)ccc21` (single isomer, unassigned) [Example 594, (*S)-3-(1-Ethyl-4-methyl-1H-benzo[d][1,2,3]triazol-5-yl)-2,2-dimethyl-3-(5-methyl-4-((8′-methyl-1′,1′-dioxidospiro[cyclopropane-1,4′-pyrido[2,3-b][1,4,5]oxathiazepin]-2′(3′H)-yl)methyl)pyridin-2-yl)propanoic Acid], in experiment [1], a half-maximal effect (EC50) was put at 3.3 nM. The Kd in experiment [2] was under 1 nM.

The molecule `Cc1cnc2c(c1)S(=O)(=O)N(Cc1cc([C@@H](c3ccn4c(C(F)F)nnc4c3C)C(C)(C)C(=O)O)ccc1C)CC1(CC1)O2` (single isomer, unassigned) [Example 560, (*S)-3-(3-(Difluoromethyl)-8-methyl-[1,2,4]triazolo[4,3-a]pyridin-7-yl)-2,2-dimethyl-3-(4-methyl-3-((8′-methyl-1′,1′-dioxidospiro[cyclopropane-1,4′-pyrido[2,3-b][1,4,5]oxathiazepin]-2′(3′H)-yl)methyl)phenyl)propanoic Acid] registered a 50% effective concentration (EC50) in experiment [1] of 1.9 nM. Further, the Kd in experiment [2] was under 1 nM.

For the molecule `Cc1ccc([C@H](c2ccn3c(C(F)(F)F)nnc3c2C)C(C)(C)C(=O)O)cc1CN1CC2(CCOCC2)Oc2nc(N[C@H](C)CN3CCCCC3)c(C)cc2S1(=O)=O` (single isomer, unassigned) [Example 603, (*R)-2,2-Dimethyl-3-(4-methyl-3-((8′-methyl-1′,1′-dioxido-7′-(((*R)-1-(piperidin-1-yl)propan-2-yl)amino)-2,3,5,6-tetrahydrospiro[pyran-4,4′-pyrido[2,3-b][1,4,5]oxathiazepin]-2′(3′H)-yl)methyl)phenyl)-3-(8-methyl-3-(trifluoromethyl)-[1,2,4]triazolo[4,3-a]pyridine-7-yl)propanoic Acid], in experiment [1], the EC50 is 55 nM. Also, the Kd in experiment [2] was under 1 nM.

In the case of `Cc1cc2c(nc1OCCN1CCCC1)OC1(CC1)CN(Cc1cc([C@@H](c3ccc4c(nnn4C4CC4)c3C)C(C)(C)C(=O)O)cnc1C)S2(=O)=O` (single isomer, unassigned) [Example 625, (*R)-3-(1-Cyclopropyl-4-methyl-1H-benzo[d][1,2,3]triazol-5-yl)-2,2-dimethyl-3-(6-methyl-5-((8′-methyl-1′,1′-dioxido-7′-(2-(pyrrolidine-1-yl)ethoxy)spiro[cyclopropane-1,4′-pyrido[2,3-b][1,4,5]]oxathiazepin]-2′(3′H)-yl)methyl)pyridine-3-yl)propanoic Acid], the EC50 in experiment [1] was 70.6 nM. Besides, in experiment [2], the Kd is under 1 nM.

`Cc1ccc([C@@H](c2ccn3c(C(F)(F)F)nnc3c2C)C(C)(C)C(=O)O)cc1CN1CC2(CC2)Oc2nc(OCCN3CCCCC3)ccc2S1(=O)=O` (single isomer, unassigned) [Example 371, (*S)-3-(3-1′,1′-Dioxido-7′-(2-(piperidin-1-yl)ethoxy)spiro[cyclopropane-1,4′-pyrido[2,3-b][1,4,5]oxathiazepin]-2′(3′H)-yl)methyl)-4-methylphenyl)-2,2-dimethyl-3-(8-methyl-3-(trifluoromethyl)-[1,2,4]triazolo[4,3-a][pyridine-7-yl)propanoic Acid]: in experiment [1], it took 6 nM to reach a half-maximal effect (EC50). Further, in experiment [2], the Kd was under 1 nM.

In turn, `Cc1ccc([C@H](CC(=O)O)c2ccn3c(C(F)(F)F)nnc3c2C)cc1CN1CC2(CC2)Oc2ncc(C(N)=O)cc2S1(=O)=O` (single isomer, unassigned) [Example 201, (*S)-3-(3-((8′-Carbamoyl-1′,1′-dioxidospiro[cyclopropane-1,4′-pyrido[2,3-b][1,4,5]oxathiazepin]-2′(3′H)-yl)methyl)-4-methylphenyl)-3-(8-methyl-3-(trifluoromethyl)-[1,2,4]triazolo[4,3-a]pyridin-7-yl)propanoic Acid] registered an EC50 in experiment [1] of over 20000 nM. In addition, the dissociation constant (Kd) in experiment [2] came out at 300 nM.

On to `Cc1ccc(C(CC(=O)O)c2ccc3c(nnn3C3CC3)c2C)cc1CN1C[C@H]2CCCN2c2ncccc2S1(=O)=O` (mixture of isomers) [Example 209, (R/S)-3-(1-Cyclopropyl-4-methyl-1H-benzo[d][1,2,3]triazol-5-yl)-3-(3-(((R)-5,5-dioxido-7a,8,9,10-tetrahydropyrido[2,3-f]pyrrolo[2,1-d][1,2,5]thiadiazepin-6(7H)-yl)methyl)-4-methylphenyl)propanoic Acid], for which a half-maximal response in experiment [1] (EC50) required 8.8 nM. For the same molecule, the Kd in experiment [2] is under 1 nM.

For `Cc1ccc([C@@H](c2ccn3c(C(F)(F)F)nnc3c2C)C(C)(C)C(=O)O)cc1CN1C[C@@]2(CCOC2)Oc2ncccc2S1(=O)=O` (single isomer, unassigned) [Example 382, (*S)-3-(3-(((*R)-1′,1′-Dioxido-4,5-dihydro-2H-spiro[furan-3,4′-pyrido[2,3-b][1,4,5]oxathiazepin]-2′(3′H)-yl)methyl)-4-methylphenyl)-2,2-dimethyl-3-(8-methyl-3-(trifluoromethyl)-[1,2,4]triazolo[4,3-a]pyridin-7-yl)propanoic Acid], it took 1.8 nM to reach a half-maximal effect in experiment [1] (EC50). The Kd in experiment [2] is under 1 nM.

As to `CC[C@@H]1CN(Cc2nc([C@@H](CC(=O)O)c3ccc4c(nnn4C4CC4)c3C)ccc2C)S(=O)(=O)c2cccnc2O1` (single isomer, unassigned) [Example 175, (*S)-3-(1-Cyclopropyl-4-methyl-1H-benzo[d][1,2,3]triazol-5-yl)-3-(6-(((R)-4-ethyl-1,1-dioxido-3,4-dihydro-2H-pyrido[2,3-b][1,4,5]oxathiazepin-2-yl)methyl)-5-methylpyridin-2-yl)propanoic Acid], the EC50 in experiment [1] was determined as 5.3 nM. In addition, the Kd in experiment [2] was under 1 nM.

`Cc1ncc([C@@H](c2ccc3c(nnn3C3CC3)c2C)C(C)(C)C(=O)O)cc1CN1CC2(COC2)Oc2ncccc2S1(=O)=O` (single isomer, unassigned) [Example 613, (*R)-3-(1-Cyclopropyl-4-methyl-1H-benzo[d][1,2,3]triazol-5-yl)-3-(5-((1′,1′-dioxidospiro[oxetane-3,4′-pyrido[2,3-b][1,4,5]oxathiazepin]-2′(3′H)-yl)methyl)-6-methylpyridin-3-yl)-2,2-dimethylpropanoic Acid] returned a 50% effective concentration (EC50) in experiment [1] of 33.2 nM. Besides, the Kd in experiment [2] is under 1 nM.

Regarding `Cc1cnc2c(c1)S(=O)(=O)N(Cc1cc([C@H](c3ccn4c(C(F)(F)F)nnc4c3C)C(C)(C)C(=O)O)ccc1C)CC1(CNC1)O2` (single isomer, unassigned) [Example 343, (*R)-2,2-Dimethyl-3-(4-methyl-3-((8′-methyl-1′,1′-dioxidospiro[azetidine-3,4′-pyrido[2,3-b][1,4,5]oxathiazepin]-2′(3′H)-yl)methyl)phenyl)-3-(8-methyl-3-(trifluoromethyl)-[1,2,4]triazolo[4,3-a]pyridin-7-yl)propanoic Acid], the EC50 in experiment [1] came to 1570 nM. Also, the Kd in experiment [2] is 32200 nM.

In turn, `Cc1ccc([C@H](c2ccn3c(C(F)(F)F)nnc3c2C)C(C)(C)C(=O)O)cc1CN1CC2(CCOCC2)Oc2nc(OCCCO)ccc2S1(=O)=O` (single isomer, unassigned) [Example 51, (*R) 3-(3-((7′-(3-Hydroxypropoxy)-1′,1′-dioxido-2,3,5,6-tetrahydrospiro[pyran-4,4′-pyrido[2,3-b][1,4,5]oxathiazepin]-2′(3′H)-yl)methyl)-4-methylphenyl-2,2′-dimethyl-3-(8-methyl-3-trifluoromethyl)-[1,2,4]triazolo[4,3-a]pyridine-7-yl)propanoic Acid] registered a 50% effective concentration (EC50) in experiment [1] of 646 nM. Moreover, in experiment [2], the Kd is 0.97 nM.
